pIC50: −log10 of the molar value. Structures can show the parent of a compound that is named as a salt. Where two headings read alike, the source gives them in different places.
How the values were obtained:
[1] = biological target: human IDO1 (Homo sapiens (Human), UniProt P14902); test: Inhibition activity on human IDO1 (enzyme assay, absorbance at 480 nm); type: biochemical; details: read-out: IC50 for inhibiting the activity of human IDO1
Method: Assay for Determining the Inhibition Activity of the Present Compounds on Human IDO1
Human IDO1 activity was tested in vitro by the following method.
This method is used to determine the inhibition effect of the compounds of the present invention on the activity of human IDO1.
The human IDO1 gene was transferred to Pet30a plasmid by gene cloning, and then transferred to competent Escherichia coli Rosseta. The IDO1 gene was scaled-up by culturing in liquid LB (Luria-Bertani) medium [which was prepared per liter according to “Molecular Cloning A Laboratory Manual” (J. Sambrook, D. W. Russell)]). The bacteria were collected and lysed by ultrasonic waves. The purified IDO1 was obtained by eluting from a column.
For testing, 24 μL of enzyme (IDO1) was diluted 100 times with 50 mM KPB to 2400 μL. The concentration of the enzyme solution was 2.6 ng/μL. A 96 well reaction plate (AXYGEN, PCR-96-FLT-C) (hereinafter referred to as the “reaction plate”) was added with the enzyme solution at 24 μL/well. The blank well was added with 24 μL of KPB [Preparation of KPB buffer (50 mM): 6.805 g of KH2PO4 was weighed using an analytical balance, and placed into a 1000 mL beaker, deionized water was added with a measuring cylinder to 900 ml, the pH was adjusted to 6.5 by 1M KOH, then the mixture was introduced into a 1 L measuring cylinder, and water was added to 1 L. It was stored at 4° C.]. Then, 1 μL of a compound or DMSO was added into the corresponding wells in the reaction plate. Preparation of solution A: 200 μL of 500 mM L-sodium ascorbate were added with 1050 μL of KPB, then the mixture was mixed uniformly for 3 seconds at the maximum speed in a turbine mixer. Solution B: 100 μL of 10 mM tryptophan were added with 100 μL of 100,000 unit/mL catalase, 5 μL of 10 mM methylene blue, and 1050 μL of KPB successively, then the mixture was mixed uniformly for 3 seconds at the maximum speed in a turbine mixer. Then, 1200 μL of solution A and 1200 μL of solution B were taken and mixed uniformly for 3 seconds at the maximum speed in a turbine mixer. The mixture was added to the reaction plate at 24 μL/well. The reaction plate was placed in a plate centrifuge and centrifuged for 15 seconds at the maximum speed, so that the reaction liquids converged to the bottom. The reaction mixture was mixed uniformly for 30 seconds on a shaker, and incubated for 1 hour at 37° C. in a constant temperature incubator. In the reaction plate, 30% (W/V) trichloroacetic acid was added at 10 μL/well, then the mixture was incubated for 15 minutes at 65° C. in an incubator. The reaction plate was centrifuged in a centrifuge for 5 minutes at 4700 RPM at room temperature. […] Then, 2% (W/V) 4-(dimethylamino)benzaldehyde/glacial acetic acid solution was added at 40 μL/well, and the mixture was mixed uniformly for 1 minute on a shaker at the maximum speed. After incubation for 2 minutes at room temperature, the absorbance at 480 nm was read on a Synergy HT (BIOTEK) reader.
The inhibition activity of the compounds of the present invention on human IDO1 was tested by the assay described above.

[2] = biological target: IDO in HeLa cells (Homo sapiens (Human), UniProt P14902); test: Inhibition activity on IDO in HeLa cells (INF-γ induced); type: cell-based; details: HeLa cells, INF-γ and tryptophan, 48 hours; read-out: IC50 for inhibiting the activity of IDO in HeLa cells
Method: Assay for Determining the Inhibition Activity of the Present Compounds on IDO in HeLa Cells
IDO activity in HeLa cells was tested in vitro by the following method.
This method is used to determine the inhibition effect of the compounds of the present invention on the activity of IDO in HeLa cells. (Note: indoleamine 2,3-dioxygenase (IDO) is expressed in the HeLa cell line and induced by interferon gamma (INF-γ)).
The supernatant was removed, serum-free DMEM high glucose medium was added at 90 μL/well, then the compounds contained in the culture medium with INF-γ and tryptophan were added at 10 μL/well (the final concentrations: 10000, 1000, 100, 10, 1, 0.1 nM). […] Then, 80 μL of the supernate was transferred from the 96-well cell culture plate to a 96 well round-bottomed plate, then 30% (W/V) trichloroacetic acid was added at 16 μL/well, then the mixture was incubated for 25 minutes at 65° C. in an incubator. The reaction plate was centrifuged in a centrifuge for 5 minutes at 4700 RPM. Then, 50 μL of the supernatant was transferred from the reaction plate to a 96-well flat-bottomed transparent plate by a multi-channel pipette. Then, 2% (W/V) 4-(dimethylamino)benzaldehyde/glacial acetic acid solution was added at 50 μL/well, then the mixture was mixed uniformly for 1 minute on a shaker. After incubation for 2 minutes at room temperature, the absorbance at 480 nm was read on a Synergy HT Reader.
The inhibition activity of the compounds of the present invention on IDO in HeLa cells was tested by the assay described above.

[3] = purified recombinant human IDO1, 1 hour at 37° C.

human IDO1, sequence (P14902 whole entry): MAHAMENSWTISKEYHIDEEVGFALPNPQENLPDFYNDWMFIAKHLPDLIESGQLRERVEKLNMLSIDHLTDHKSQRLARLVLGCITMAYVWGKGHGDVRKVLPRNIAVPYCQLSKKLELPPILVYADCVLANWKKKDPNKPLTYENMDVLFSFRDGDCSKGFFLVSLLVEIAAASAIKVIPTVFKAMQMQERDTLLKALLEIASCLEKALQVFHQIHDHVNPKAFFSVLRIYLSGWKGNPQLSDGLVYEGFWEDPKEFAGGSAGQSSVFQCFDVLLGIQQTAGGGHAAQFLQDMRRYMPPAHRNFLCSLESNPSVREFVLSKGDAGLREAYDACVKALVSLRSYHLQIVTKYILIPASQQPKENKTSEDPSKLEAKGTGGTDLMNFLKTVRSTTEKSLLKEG
IDO in HeLa cells, sequence (P14902 whole entry): as above

Row | SMILES | pIC50 [1, 3] | pIC50 [2] | pIC50 [1]
1 | COc1ccc(N2CCC(C3c4c(F)cccc4-c4cncn43)CC2)cc1 (stereo not shown) [Example 4, 6-fluoro-5-(1-(4-methoxyphenyl)piperidin-4-yl)-5H-imidazo[5,1-a]isoindole trifluoroacetate] | 7.02 | 6.73 | –
2 | CC(=O)Nc1cccc(N2CCC(C3c4c(F)cccc4-c4cncn43)CC2)c1 (stereo not shown) [Example 12, N-(3-(4-(6-fluoro-5H-imidazo[5,1-a]isoindol-5-yl)piperidin-1-yl)phenyl)acetamide trifluoroacetate] | 7.16 | 7.15 | –
3 | O=C(Nc1ccccc1)N1CCC(C2c3c(F)cccc3-c3cncn32)CC1 (stereo not shown) [Example 21, 4-(6-fluoro-5H-imidazo[5,1-a]isoindol-5-yl)-N-phenylpiperidine-1-carboxamide trifluoroacetate] | – | 6.32 | –
4 | N#Cc1ccc(NC(=O)N2CCC(C3c4c(F)cccc4-c4cncn43)CC2)cc1 (stereo not shown) [Example 22, N-(4-cyanophenyl)-4-(6-fluoro-5H-imidazo[5,1-a]isoindol-5-yl)piperidine-1-carboxamide trifluoroacetate] | 7.24 | 6.89 | –
5 | CS(=O)(=O)N1CCC(n2cc(-c3ccc(N4CCC(C5c6c(F)cccc6-c6cncn65)CC4)cc3)cn2)CC1 (stereo not shown) [Example 31, 6-fluoro-5-(1-(4-(1-(1-(methylsulfonyl)piperidin-4-yl)-1H-pyrazol-4-yl)phenyl)piperidin-4-yl)-5H-imidazo[5,1-a]isoindole trifluoroacetate] | – | – | 7.85
6 | Fc1cccc2c1C(C1CCN(c3ccc(-c4cnn([C@@H]5CCOC5)c4)cc3)CC1)n1cncc1-2 (stereo partly drawn) [Example 32, 6-fluoro-5-(1-(4-(1-((R)-tetrahydrofuran-3-yl)-1H-pyrazol-4-yl)phenyl)piperidin-4-yl)-5H-imidazo[5,1-a]isoindole trifluoroacetate] | – | 6.65 | 7.48
7 | CS(=O)(=O)N1CCCC(Oc2cnc(N3CCC(C4c5c(F)cccc5-c5cncn54)CC3)nc2)C1 (stereo not shown) [Example 37, 6-fluoro-5-(1-(5-((1-(methylsulfonyl)piperidin-3-yl)oxy)pyrimidin-2-yl)piperidin-4-yl)-5H-imidazo[5,1-a]isoindole trifluoroacetate] | 7.75 | 6.94 | –
8 | COCCn1cc(-c2ccc(N3CCC(C4c5c(F)cccc5-c5cncn54)CC3)cc2)cn1 (stereo not shown) [Example 42, 6-fluoro-5-(1-(4-(1-(2-methoxyethyl)-1H-pyrazol-4-yl)phenyl)piperidin-4-yl)-5H-imidazo[5,1-a]isoindole trifluoroacetate] | – | 6.60 | 7.44
9 | CC(=O)NCCn1cc(-c2ccc(N3CCC(C4c5c(F)cccc5-c5cncn54)CC3)cc2)cn1 (stereo not shown) [Example 43, N-(2-(4-(4-(4-(6-fluoro-5H-imidazo[5,1-a]isoindol-5-yl)piperidin-1-yl)phenyl)-1H-pyrazol-1-yl)ethyl)acetamide trifluoroacetate] | – | 6.77 | 7.20
10 | Fc1cccc2c1C(C1CCN(c3ccc(-c4cnn(C5CCOC5)c4)cc3)CC1)n1cncc1-2 [Example 44, 6-fluoro-5-(1-(4-(1-((R)-tetrahydrofuran-3-yl)-1H-pyrazol-4-yl)phenyl)piperidin-4-yl)-5H-imidazo[5,1-a]isoindole trifluoroacetate] | – | 6.76 | 7.78
11 | Fc1cccc2c1C(C1CCN(c3ccc(Cl)cn3)CC1)n1cncc1-2 (stereo not shown) [Example 47, 5-(1-(5-chloropyridin-2-yl)piperidin-4-yl)-6-fluoro-5H-imidazo[5,1-a]isoindole] | – | 7.05 | –

Second part, led by results:

Row | pIC50 [1, 3] | pIC50 [2] | SMILES | pIC50 [1]
12 | 7.10 | 6.60 | Cn1cc(-c2cccc(N3CCC(C4c5c(F)cccc5-c5cncn54)CC3)c2)cn1 (stereo not shown) [Example 8, 6-fluoro-5-(1-(3-(1-methyl-1H-pyrazol-4-yl)phenyl)piperidin-4-yl)-5H-imidazo[5,1-a]isoindole] | –
13 | 7.14 | 6.32 | O=C(NC1CCOCC1)c1ccc(N2CCC(C3c4c(F)cccc4-c4cncn43)CC2)cc1 (stereo not shown) [Example 11, 4-(4-(6-fluoro-5H-imidazo[5,1-a]isoindol-5-yl)piperidin-1-yl)-N-(tetrahydro-2H-pyran-4-yl)benzamide trifluoroacetate] | –
14 | – | 6.70 | Fc1cccc2c1C(C1CCN(c3ccccn3)CC1)n1cncc1-2 (stereo not shown) [Example 15, 6-fluoro-5-(1-(pyridin-2-yl)piperidin-4-yl)-5H-imidazo[5,1-a]isoindole trifluoroacetate] | –
15 | – | 6.58 | Fc1cccc2c1C(C1CCN(c3ncccn3)CC1)n1cncc1-2 (stereo not shown) [Example 16, 6-fluoro-5-(1-(pyrimidin-2-yl)piperidin-4-yl)-5H-imidazo[5,1-a]isoindole trifluoroacetate] | –
16 | – | 7.33 | COc1cccc(NC(=O)C2CCC([C@@H]3c4c(F)cccc4-c4cncn43)CC2)c1 (stereo partly drawn) [Example 33, (1S,4S)-4-((R)-6-fluoro-5H-imidazo[5,1-a]isoindol-5-yl)-N-(3-methoxyphenyl)cyclohexanecarboxamide] | –
17 | 7.55 | 6.82 | Fc1cccc2c1C(C1CCN(c3ccc(OC4CCOC4)cc3)CC1)n1cncc1-2 (stereo not shown) [Example 38, 6-fluoro-5-(1-(4-((tetrahydrofuran-3-yl)oxy)phenyl)piperidin-4-yl)-5H-imidazo[5,1-a]isoindole] | –
